These are literature values, as cited in publication PMC3362725, “An open-label, phase 1 study evaluating safety, tolerability, and pharmacokinetics of linifanib (ABT-869) in Japanese patients with solid tumors” (Cancer Chemotherapy and Pharmacology, 2012).

On the set-up of this data set: method as in PMID 17634482, PMID 17557949, PMID 21131369. The conditions noted are these: mixed-population TKI phase 1 studies, phase 2 recommended dose levels; cited from earlier work.

For `Cc1cc2c(F)c(Oc3ncnn4cc(OC[C@@H](C)O)c(C)c34)ccc2[nH]1` [brivanib], the “patients with Grade 3 hypertension” value is listed as 14–20%.

Consider `CC1(C)CNc2cc(NC(=O)c3cccnc3NCc3ccncc3)ccc21` [motesanib], for which the “patients with Grade 3 hypertension” value is 14–20%.
